Earlier results, collected in US11622994B2, “Therapy for vitiligo” (Clinuvel Pharmaceuticals Limited, priority 2008, dated 2023).

What was measured:
frog skin = frog skin bioassay; versus native alpha-MSH
[1] = test system: cultured human keratinocytes; settings: versus native alpha-MSH

In the case of Nle^4-D-Phe^7-alpha-MSH, the “potency relative to the native hormone at inducing pigmentation” value (frog skin) is given as 10 to 1,000 fold, the melanin synthesis (human volunteers) is given as “can induce melanin synthesis” and the “potency relative to the native hormone at inducing pigmentation” value [1] is given as 10 to 1,000 fold.
